According to ChEMBL document CHEMBL1129167, “Examination of the role of the duocarmycin SA methoxy substituents: Identification of the minimum, fully potent DNA binding subunit” (Bioorg Med Chem Lett, 1996):

Experiments:
L1210 = test: In vitro cytotoxicity in L1210 cell lines; format: functional, cell-based, Mus musculus
[1] = Compound was evaluated for relative DNA alkylation efficiency.; format: functional

SMILES	IC50 (L1210) [nM]	krel [1]
COC(=O)c1cc2c([nH]1)C(=O)C=C1N(C(=O)c3cc4ccccc4[nH]3)C[C@H]3C[C@]123 (stereo in doubt; (+)-4) [listing 1 of 2 here]	0.065	–
COC(=O)c1cc2c([nH]1)C(=O)C=C1N(C(=O)c3cc4ccccc4[nH]3)C[C@H]3C[C@]123 (stereo in doubt; (+)-4) [listing 2 of 2 here]	–	0.05
COC(=O)c1cc2c([nH]1)C(=O)C=C1N(C(=O)c3cc4cc(OC)ccc4[nH]3)C[C@H]3C[C@]123 (stereo in doubt; (+)-5) [listing 1 of 2 here]	0.01	–
COC(=O)c1cc2c([nH]1)C(=O)C=C1N(C(=O)c3cc4cc(OC)ccc4[nH]3)C[C@H]3C[C@]123 (stereo in doubt; (+)-5) [listing 2 of 2 here]	–	1
COC(=O)c1cc2c([nH]1)C(=O)C=C1N(C(=O)c3cc4ccc(OC)cc4[nH]3)C[C@H]3C[C@]123 (stereo in doubt; (+)-6) [listing 1 of 2 here]	0.025	–
COC(=O)c1cc2c([nH]1)C(=O)C=C1N(C(=O)c3cc4ccc(OC)cc4[nH]3)C[C@H]3C[C@]123 (stereo in doubt; (+)-6) [listing 2 of 2 here]	–	0.2
COC(=O)c1cc2c([nH]1)C(=O)C=C1N(C(=O)c3cc4cccc(OC)c4[nH]3)C[C@H]3C[C@]123 (stereo in doubt; (+)-7) [listing 1 of 2 here]	0.06	–
COC(=O)c1cc2c([nH]1)C(=O)C=C1N(C(=O)c3cc4cccc(OC)c4[nH]3)C[C@H]3C[C@]123 (stereo in doubt; (+)-7) [listing 2 of 2 here]	–	0.1
COC(=O)c1cc2c([nH]1)C(=O)C=C1N(C(=O)c3cc4ccccc4[nH]3)C[C@H]3C[C@]123 (stereo in doubt; (-)-4)	1.7	–
COC(=O)c1cc2c([nH]1)C(=O)C=C1N(C(=O)c3cc4cc(OC)ccc4[nH]3)C[C@H]3C[C@]123 (stereo in doubt; (-)-5)	0.3	–
COC(=O)c1cc2c([nH]1)C(=O)C=C1N(C(=O)c3cc4ccc(OC)cc4[nH]3)C[C@H]3C[C@]123 (stereo in doubt; (-)-6)	1.3	–
COC(=O)c1cc2c([nH]1)C(=O)C=C1N(C(=O)c3cc4cccc(OC)c4[nH]3)C[C@H]3C[C@]123 (stereo in doubt; (-)-7)	1.8	–
COC(=O)c1cc2c([nH]1)C(=O)C=C1N(C(=O)c3cc4cc(OC)c(OC)c(OC)c4[nH]3)C[C@H]3C[C@]123 [DUOCARMYCIN]	0.1	1
